# Test results as given in US12209135B2, “Anti-CD45 antibodies and conjugates thereof” (priority 2019, dated 2025).
# Marks after values point to notes of the source that are not given here.
# What was measured:
# [1] = Quintieri et al. 2005; cited from earlier work
# AML #2 PDX = assay: AML patient derived xenograft model AML #2 (relapsed refractory post allogeneic HSCT); format: in vivo, immune deficient mice (NSG-SGM3, or NSG); details: Table 26; 30 mg/kg QDx5
# Procedure: (§1) A panel of models were evaluated to mimic untreated and refractory disease: AML patient derived xenograft (PDX) models (from treatment naïve and relapsed post allogeneic HCT patients; all FLT-3+NPM1+), ALL cells from an immortalized cell line (REH-Luc), and T-ALL patient-derived xenograft (PDX) model (from a patient progressing post DHAP chemotherapy).
# (§2) AML #1 was derived from a treatment naïve patient (J000106134) and AML #2 was derived from a heavily pre-treated relapsed refectory patient post allogenic HSCT (J000106132), The T-ALL was derived from a patient progressing post DHAP chemotherapy. The cell line-derived ALL was transduced to express firefly luciferase. Cells of each tumor type were systemically inoculated into immune deficient mice (NSG-SGM3, or NSG).
# (§3) Treatment began when peripheral tumor burden of PDX (n=3-5/group), and CDX mice reached 2-16% blast in the peripheral blood or day 5 post implant for the REH-luc model (n=10/group).
# (§4) In the AML patient derived xenograft (PDX) models from treatment naïve and relapsed post allogeneic […] patients, treatment began when 2-16% blasts were detected in the periphery (n=3-5 mice/group/AML PDX model). Mice were treated with a single intravenous dose of anti-human CD45-ADC (AbA-AM), isotype-ADC, or vehicle (PBS). Ara-c was administered intravenously once daily for five consecutive days.
# AML #1 PDX = assay: AML patient derived xenograft model AML #1 (treatment naïve); format: in vivo, immune deficient mice (NSG-SGM3, or NSG); details: Table 25; 30 mg/kg QDx5
# Procedure: as §1, §2, §3, §4
# T-ALL PDX = assay: T-ALL patient-derived xenograft (PDX) model; format: in vivo, immune deficient mice (NSG-SGM3, or NSG); details: for Median Survival (Days Post Implant): Table 24
# Procedure: as §1, §2, §3
# REH-Luc ALL cells = assay: REH-Luciferase ALL xenograft (CDX) model; format: in vivo, immune deficient mice (NSG-SGM3, or NSG); details: Table 23; 3 mg/kg QWx3
# Procedure: as §1, §2, §3
# Bioluminescence signal was measured using the IVIS imaging system (PerkinElmer). Radiance (mean±SEM) was captured over a time course of the study. Representative bioluminescence signal pseudo colored images were captured on day 22-23 post-implantation for all treatment groups, as shown in FIG. 29C.
smiles,measurement,setting,value
COc1cccc2c1C(=O)c1c(O)c3c(c(O)c1C2=O)C[C@@](O)(C(=O)CO)C[C@@H]3O[C@H]1CC2[C@H](O[C@@H]3[C@@H](OC)OCCN23)[C@H](C)O1 (stereo partly shown) [PNU-159682],cytotoxicity relative to the parent nemorubicin,[1],greater than 3000 fold
Nc1ccn([C@@H]2O[C@H](CO)[C@@H](O)[C@@H]2O)c(=O)n1 [Ara-C],Median Survival (Days Post Implant),AML #2 PDX,60^†‡ Days
same,Median Survival (Days Post Implant),AML #1 PDX,97^† Days
same,Median Survival (Days Post Implant),T-ALL PDX; 30 mg/kg QDx5,77*^† Days
"COc1cccc2c1C(=O)c1c(O)c3c(c(O)c1C2=O)C[C@@](O)(C(=O)CO)C[C@@H]3O[C@H]1C[C@H](N)[C@H](O)[C@H](C)O1 [Doxorubicin, doxorubicin]",Median Survival (Days Post Implant),REH-Luc ALL cells,50^† Days
"C[C@@H]1C[C@H]2[C@@H]3CCC4=CC(=O)C=C[C@]4(C)[C@@]3(F)[C@@H](O)C[C@]2(C)[C@@]1(O)C(=O)CO [Dexamethasone, dexamethasone]",Median Survival (Days Post Implant),T-ALL PDX; 5 mg/kg Q3Dx9,47*^‡ Days
same,median survival,"T-ALL PDX; text b933, AbA-AM1 single injection 3, or 6 mg/kg on day 5, n=5 mice/group",47 days
